Assay results taken from ChEMBL document CHEMBL1137606, “Synthesis of novel phytosphingosine derivatives and their preliminary biological evaluation for enhancing radiation therapy” (2007).
Activity calls are given as the source filed them. The calls are words filed in the database; no cut-off is given here.

Columns and labels:
Jurkat [1] = test: Cytotoxicity against human Jurkat cells at 10 uM after 30 mins; format: functional, cell-based
Jurkat [2] = test: Cytotoxicity against gamma irradiated human Jurkat cells at 10 uM after 30 mins relative to control; format: functional

SMILES	Activity (Jurkat [1])	Activity (Jurkat [2])
CCCCCCCCCCCCCC[C@@H](O)[C@@H](O)[C@H](CO)NC(=O)CCCCCCCCC(=O)OC	Active	inactive
CCCCCCCCCCCCCC[C@@H](O)[C@@H](O)[C@H](CO)NC(=O)CCC(=O)OCC	–	12%
CCCCCCCCCCCCCC[C@@H](O)[C@@H](O)[C@H](CO)NC(=O)COCc1ccccc1	–	11%
CCCCCCCCCCCCCC[C@@H](O)[C@@H](O)[C@H](CO)NC(=O)CCCC(=O)OCC	–	19%
CCCCCCCCCCCCCC[C@@H](O)[C@@H](O)[C@@H](N)CO	Active	inactive
